According to patent publication US20240059961A1, “BIOCOMPATIBLE OXYGEN-SENSITIVE MATERIALS” (Promega Corporation, priority 2022, published 2024):

Assays:
Type in all cases: cell-based
[1] = system: HCT-116 cells; test: Oxygen consumption of HCT-116 cells on the oxygen sensing film
Procedure: To determine the minimum number of cells necessary to observe a signal change, HCT-116 cells were titrated from 15k-120k cells/well (95k-750k cells/cm^2). The following day, the culture medium of the cells was replaced with fresh DMEM (high glucose, without phenol red), and the ratiometric fluorescence of 650/490 nm was recorded over time in a plate reader with temperature control at 37° C. […] Further experiments using drug treatments were carried out at 250k cells/cm^2.
HCT-116 cells were seeded onto the oxygen sensing surface functionalized with 300 ug mL-1 Collagen I at 40,000 cells/well of a half-area 96-well plate (250,000 cells/cm^2). The following day, the culture medium was replaced with medium containing 2-[[4-(trifluoromethoxy)phenyl]hydrazinylidene]propanedinitrile (FCCP), an uncoupler of oxidative phosphorylation in mitochondria that increases oxygen consumption. […] HCT-116 cells were additionally treated with rotenone at 2 uM, which is an inhibitor of oxidative phosphorylation.

[2] = system: PC-3; test: Oxygen consumption of PC-3 cells on the oxygen sensing film; conditions: PC-3, drug treatment
[3] = system: HEP-G2; test: Oxygen consumption of HEP-G2 cells on the oxygen sensing film; conditions: HEP-G2, drug treatment
[4] = system: C2C12 cells; test: Cell attachment / cellular coverage on protein-coated siloxane surface; conditions: for coating concentration sufficient to enhance the adhesion of cells to the surface: C2C12 cells on coated siloxane surface; for cellular coverage on the substrate: C2C12 seeded at 60,000 cells/cm^2, assessed the following day, covalent or passive coating, 100-3,000 ug mL-1
Procedure: After silane film fabrication, the film surface was further modified with a biomacromolecule coating to enhance cell attachment. Biomacromolecules assessed for cell attachment include collagen type I (rat tail, acid extracted) and laminin. […] Passive coating of the substrate is achieved by incubating a solution of the biomacromolecule (e.g., 300 ug mL-1 collagen type I in 17 mM acetic acid) on the film for either 1 hour at room temperature or overnight at 4° C. Excess biomacromolecule was removed by washing the substrate with phosphate buffered saline (PBS).
The surface was coated with Collagen I and Laminin, either covalently or passively. Covalent conjugation is achieved with sulfo-SANPAH conjugation method, and passive coating is achieved by incubating the siloxane surface in the presence of the protein for 1 hour at room temperature. The protein was titrated from 100 ug mL-1-3,000 ug mL-1. C2C12 cells were seeded on the coated surface at 60,000 cells/cm^2, and cellular coverage on the substrate was assessed the following day.

| Compound | oxygen consumption ([1]; HCT-116, 40,000 cells/well, FCCP treatment, concentration up to 4 uM) | oxygen consumption [2] | oxygen consumption [3] | oxygen consumption ([1]; HCT-116, rotenone at 2 uM) | coating concentration sufficient to enhance the adhesion of cells to the surface [4] | cellular coverage on the substrate [4] | cell attachment ([4]; passive coating of the film) |
| --- | --- | --- | --- | --- | --- | --- | --- |
| N#CC(C#N)=NNc1ccc(OC(F)(F)F)cc1 [FCCP, 2-[[4-(trifluoromethoxy)phenyl]hydrazinylidene]propanedinitrile] | oxygen consumption increased with increasing FCCP concentration up to 4 uM | increased oxygen consumption | increased oxygen consumption | – | – | – | – |
| C=C(C)[C@H]1Cc2c(ccc3c2O[C@@H]2COc4cc(OC)c(OC)cc4[C@@H]2C3=O)O1 [rotenone] | – | decreased oxygen consumption | decreased oxygen consumption | inhibited oxygen consumption | – | – | – |
| Collagen I: collagen type I (rat tail, acid extracted), biomacromolecule coating to enhance cell attachment | – | – | – | – | 300 µg/mL | enhanced cellular coverage | sufficient for cell attachment |
| Laminin | – | – | – | – | 300 µg/mL | enhanced cellular coverage | – |
